From BindingDB's records for patent US10383835 (University of California, 2019)

Biological target: T1, Bifunctional epoxide hydrolase 2 (Sus scrofa, UniProt Q6Q2C2)
T1 sequence (Q6Q2C2 whole entry): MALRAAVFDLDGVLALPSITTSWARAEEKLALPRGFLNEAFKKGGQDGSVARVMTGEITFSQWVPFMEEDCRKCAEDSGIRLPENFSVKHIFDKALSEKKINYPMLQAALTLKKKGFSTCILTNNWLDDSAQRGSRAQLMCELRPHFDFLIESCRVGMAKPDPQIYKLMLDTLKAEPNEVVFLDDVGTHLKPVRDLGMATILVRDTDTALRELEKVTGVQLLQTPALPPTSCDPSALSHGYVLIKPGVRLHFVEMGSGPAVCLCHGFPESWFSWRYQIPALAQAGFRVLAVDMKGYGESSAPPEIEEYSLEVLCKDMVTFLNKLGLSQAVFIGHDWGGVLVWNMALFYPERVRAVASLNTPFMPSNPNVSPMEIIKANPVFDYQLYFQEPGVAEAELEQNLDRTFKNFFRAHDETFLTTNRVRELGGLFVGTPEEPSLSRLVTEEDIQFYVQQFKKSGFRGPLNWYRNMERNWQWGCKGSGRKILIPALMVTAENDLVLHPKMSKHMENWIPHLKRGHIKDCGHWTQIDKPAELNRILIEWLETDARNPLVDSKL
Assay: Inhibition Assay
Excerpt: The enzyme also can be detected based on the binding of specific ligands to the catalytic site which either immobilize the enzyme or label it with a probe such as dansyl, fluoracein, luciferase, green fluorescent protein or other reagent. The enzyme can be assayed by its hydration of EETs, its hydrolysis of an epoxide to give a colored product. The assays are normally carried out with a recombinant enzyme following affinity purification.

CC(=O)N1CCC(NC(=O)Nc2ccc(OC(F)(F)F)cc2)CC1 [US10383835, Compound 1555] was tested, and the IC50 was 201 nM.
